In US20090111801A1, “SUBSTITUTED PYRAZINONE DERIVATIVES FOR USE AS A MEDICINE” (Janssen Pharmaceutica N.V., priority 2006, published 2009):

Legend:
hα2A receptor = target: T1, hα2A receptor (Homo sapiens, UniProt P08913); experiment: Radioligand binding experiment for α2A-adrenoceptor ([3H]raulwolscine, CHO cell membranes); details: [3H]raulwolscine binding, read-out: h-α2A pIC50 (converted)
T1 construct: expressed in transfected cells; host or cells: CHO cells, stably transfected; membrane preparation
T1 sequence (P08913 1-465): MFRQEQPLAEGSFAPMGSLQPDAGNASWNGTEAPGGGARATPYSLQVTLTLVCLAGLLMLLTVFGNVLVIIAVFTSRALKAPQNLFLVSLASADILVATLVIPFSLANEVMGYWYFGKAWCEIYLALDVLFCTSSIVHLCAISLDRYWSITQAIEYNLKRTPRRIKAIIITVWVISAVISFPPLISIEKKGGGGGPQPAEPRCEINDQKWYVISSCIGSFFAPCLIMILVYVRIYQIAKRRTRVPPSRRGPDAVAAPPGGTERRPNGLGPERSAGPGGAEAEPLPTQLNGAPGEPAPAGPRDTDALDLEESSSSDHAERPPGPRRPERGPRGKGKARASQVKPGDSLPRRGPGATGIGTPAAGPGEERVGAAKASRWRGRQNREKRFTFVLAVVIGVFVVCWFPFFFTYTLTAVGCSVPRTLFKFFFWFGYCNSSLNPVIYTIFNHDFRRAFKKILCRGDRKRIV

hα2C receptor = target: T2, hα2C receptor (Homo sapiens, UniProt P18825); experiment: Radioligand binding experiment for α2C-adrenoceptor ([3H]raulwolscine, CHO cell membranes); details: [3H]raulwolscine binding, read-out: h-α2C pIC50 (converted)
T2 construct: expressed in transfected cells; host or cells: CHO cells, stably transfected; membrane preparation
T2 sequence (P18825 1-462): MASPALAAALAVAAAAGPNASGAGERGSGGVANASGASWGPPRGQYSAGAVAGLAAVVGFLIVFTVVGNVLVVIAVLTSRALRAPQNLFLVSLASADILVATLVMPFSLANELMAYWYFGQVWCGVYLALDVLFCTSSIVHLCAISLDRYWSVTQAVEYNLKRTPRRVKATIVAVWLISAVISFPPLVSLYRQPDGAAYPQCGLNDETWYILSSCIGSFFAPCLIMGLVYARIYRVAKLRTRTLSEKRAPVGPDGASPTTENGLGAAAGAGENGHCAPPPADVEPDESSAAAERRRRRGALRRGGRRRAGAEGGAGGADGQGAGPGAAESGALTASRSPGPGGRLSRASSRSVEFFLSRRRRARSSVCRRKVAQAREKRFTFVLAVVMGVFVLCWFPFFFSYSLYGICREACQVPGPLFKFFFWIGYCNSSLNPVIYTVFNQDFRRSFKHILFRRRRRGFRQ

5HT-Transporter = target: T3, 5HT-Transporter (Homo sapiens, UniProt P31645); experiment: Binding experiment for the 5HT-transporter ([3H]paroxetine, human platelet membranes); details: [3H]paroxetine 0.5 nM, read-out: h-5HTT pIC50 (converted)
T3 construct: Human platelet membranes (Oceanix Biosciences Corporation, Hanover, Md., USA) were thawed; tissue Oceanix Biosciences Corporation, Hanover, Md., USA; host or cells: human platelet membranes
Outline: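 Competition binding of [3H]paroxetine to human platelet membranes in Tris-HCl 50 mM, 120 mM NaCl, 5 mM KCl, with filtration and scintillation counting.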

T3 sequence (P31645 whole entry): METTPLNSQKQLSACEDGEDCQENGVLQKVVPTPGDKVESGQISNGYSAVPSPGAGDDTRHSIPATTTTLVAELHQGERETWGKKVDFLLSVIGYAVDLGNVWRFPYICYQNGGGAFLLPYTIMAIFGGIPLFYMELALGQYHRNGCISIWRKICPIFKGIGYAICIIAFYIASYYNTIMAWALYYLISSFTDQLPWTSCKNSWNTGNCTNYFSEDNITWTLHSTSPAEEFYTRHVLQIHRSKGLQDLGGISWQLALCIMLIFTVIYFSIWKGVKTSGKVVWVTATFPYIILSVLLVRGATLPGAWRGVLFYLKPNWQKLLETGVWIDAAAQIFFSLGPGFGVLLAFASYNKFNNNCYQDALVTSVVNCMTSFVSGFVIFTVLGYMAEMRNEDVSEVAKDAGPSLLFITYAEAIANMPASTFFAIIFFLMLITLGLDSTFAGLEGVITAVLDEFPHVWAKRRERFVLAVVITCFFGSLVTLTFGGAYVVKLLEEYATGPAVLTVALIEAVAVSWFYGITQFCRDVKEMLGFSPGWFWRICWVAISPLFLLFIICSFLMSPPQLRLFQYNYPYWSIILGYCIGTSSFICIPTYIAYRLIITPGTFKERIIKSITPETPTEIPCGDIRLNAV

Row | Compound | IC50 (hα2A receptor) | IC50 (hα2C receptor) | IC50 (5HT-Transporter)
1 | COc1ccc(Cn2ccnc(NC3CCN(C/C(C)=C/c4ccccc4)CC3)c2=O)cc1 [3-11] | 0.02 µM | 0.0316 µM | 0.501 µM
2 | COC(=O)c1ccc(-n2ccnc(NC3CCN(C/C(C)=C/c4ccccc4)CC3)c2=O)cc1 [3-12] | 0.0316 µM | 0.0158 µM | 0.501 µM
3 | COC(=O)c1cccc(Cn2ccnc(NC3CCN(C/C(C)=C/c4ccccc4)CC3)c2=O)c1 [3-13] | 0.0251 µM | 0.02 µM | 0.501 µM
4 | COC(=O)c1ccc(Cn2ccnc(NC3CCN(C/C(C)=C/c4ccccc4)CC3)c2=O)cc1 [3-14] | 0.0794 µM | 0.0631 µM | 0.794 µM
5 | CCOC(=O)Cn1ccnc(NC2CCN(C/C(C)=C/c3ccccc3)CC2)c1=O [3-16] | 0.126 µM | 0.0158 µM | > 10 µM
6 | CCOC(=O)CCCCn1ccnc(NC2CCN(C/C(C)=C/c3ccccc3)CC2)c1=O [3-17] | 0.126 µM | 0.0158 µM | 0.794 µM
7 | C/C(=C\c1ccccc1)CN1CCC(Nc2nccn(CCCOc3ccccc3)c2=O)CC1 [3-19] | 0.0631 µM | 0.02 µM | 0.2 µM
8 | C/C(=C\c1ccccc1)CN1CCC(Nc2nccn(CC(=O)OCc3ccccc3)c2=O)CC1 [3-20] | 0.1 µM | 0.0158 µM | 3.98 µM
9 | COCCOCCn1ccnc(NC2CCN(C/C(C)=C/c3ccccc3)CC2)c1=O [3-21] | 0.316 µM | 0.0398 µM | 3.98 µM
10 | CSCCn1ccnc(NC2CCN(C/C(C)=C/c3ccccc3)CC2)c1=O [4-1] | 0.0398 µM | 0.02 µM | 3.16 µM
11 | C/C(=C\c1ccccc1)CN1CCC(Nc2nccn(-c3ccccc3)c2=O)CC1 [5-1] | 0.0316 µM | 0.00501 µM | 1.26 µM
12 | C/C(=C\c1ccccc1)CN1CCC(Nc2nccn(-c3ccc(F)cc3)c2=O)CC1 [5-2] | 0.0316 µM | 0.01 µM | 0.398 µM
13 | CCc1ccc(-n2ccnc(NC3CCN(C/C(C)=C/c4ccccc4)CC3)c2=O)cc1 [5-4] | 0.0398 µM | 0.0126 µM | 0.398 µM
14 | C/C(=C\c1ccccc1)CN1CCC(Nc2nccn(-c3ccc(C=O)cc3)c2=O)CC1 [5-6] | 0.0398 µM | 0.00631 µM | 2 µM
15 | C/C(=C\c1ccccc1)CN1CCC(Nc2nccn(Cc3ccccc3)c2=O)CC1 [5-8] | 0.2 µM | 0.0501 µM | 1.58 µM
16 | C/C(=C\c1ccccc1)CN1CCC(Nc2nccn(Cc3ccc(C)cc3)c2=O)CC1 [5-9] | 0.158 µM | 0.0501 µM | 1 µM
17 | C/C(=C\c1ccccc1)CN1CCC(Nc2nccn(Cc3ccccc3F)c2=O)CC1 [5-11] | 0.158 µM | 0.0316 µM | 0.501 µM

Row | Compound | IC50 (hα2A receptor) | IC50 (hα2C receptor) | IC50 (5HT-Transporter)
18 | C/C(=C\c1ccccc1)CN1CCC(Nc2nccn(Cc3ccc(F)cc3)c2=O)CC1 [5-13] | 0.158 µM | 0.0631 µM | 1.26 µM
19 | C/C(=C\c1ccccc1)CN1CCC(Nc2nccn(Cc3ccccc3Br)c2=O)CC1 [5-14] | 0.0501 µM | 0.0126 µM | 0.2 µM
20 | C/C(=C\c1ccccc1)CN1CCC(Nc2nccn(Cc3ccc(Br)cc3)c2=O)CC1 [5-16] | 0.126 µM | 0.0501 µM | 0.501 µM
21 | C/C(=C\c1ccccc1)CN1CCC(Nc2nccn(Cc3ccccc3Cl)c2=O)CC1 [5-17] | 0.0631 µM | 0.02 µM | 0.251 µM
22 | C/C(=C\c1ccccc1)CN1CCC(Nc2nccn(Cc3cccc(Cl)c3)c2=O)CC1 [5-18] | 0.126 µM | 0.0398 µM | 0.631 µM
23 | C/C(=C\c1ccccc1)CN1CCC(Nc2nccn(Cc3ccccc3C#N)c2=O)CC1 [5-19] | 0.1 µM | 0.02 µM | 0.398 µM
24 | C/C(=C\c1ccccc1)CN1CCC(Nc2nccn(Cc3cccc(C(F)(F)F)c3)c2=O)CC1 [5-22] | 0.126 µM | 0.0501 µM | 0.794 µM
25 | C/C(=C\c1ccccc1)CN1CCC(Nc2nccn(Cc3ccc(S(C)(=O)=O)cc3)c2=O)CC1 [5-26] | 0.126 µM | 0.0251 µM | 1.26 µM
26 | C/C(=C\c1ccccc1)CN1CCC(Nc2nccn(CCc3ccccc3)c2=O)CC1 [5-27] | 0.1 µM | 0.0158 µM | 0.398 µM
27 | C/C(=C\c1ccccc1)CN1CCC(Nc2nccn(CC(=O)c3ccccc3)c2=O)CC1 [5-29] | 0.0158 µM | 0.01 µM | 0.794 µM
28 | C/C(=C\c1ccccc1)CN1CCC(Nc2nccn(-c3ccc(-c4ccccc4)cc3)c2=O)CC1 [5-30] | 0.0251 µM | 0.00794 µM | 0.398 µM
29 | C/C(=C\c1ccccc1)CN1CCC(Nc2nccn(Cc3cccc4ccccc34)c2=O)CC1 [5-34] | 0.1 µM | 0.0251 µM | 0.398 µM
30 | C/C(=C\c1ccccc1)CN1CCC(Nc2nccn(Cc3ccc4ccccc4c3)c2=O)CC1 [5-35] | 0.0631 µM | 0.0398 µM | 0.398 µM
31 | C/C(=C\c1ccccc1)CN1CCC(Nc2nccn(Cc3ccco3)c2=O)CC1 [6-2] | 0.126 µM | 0.0251 µM | 1.26 µM
32 | C/C(=C\c1ccccc1)CN1CCC(Nc2nccn(Cc3csc(C)n3)c2=O)CC1 [6-6] | 0.126 µM | 0.02 µM | 3.16 µM
33 | C/C(=C\c1ccccc1)CN1CCC(Nc2nccn(Cc3cnc(C)s3)c2=O)CC1 [6-8] | 0.158 µM | 0.0251 µM | 3.98 µM

Now from value to compound:

Row | IC50 (hα2A receptor) | IC50 (hα2C receptor) | IC50 (5HT-Transporter) | Compound
34 | 0.126 µM | 0.0316 µM | 0.158 µM | C/C(=C\c1ccccc1)CN1CCC(Nc2nccn(CCOc3ccccc3)c2=O)CC1 [3-18]
35 | 0.0126 µM | 0.00631 µM | 0.158 µM | CSc1ccc(-n2ccnc(NC3CCN(C/C(C)=C/c4ccccc4)CC3)c2=O)cc1 [4-2]
36 | 0.0501 µM | 0.01 µM | 1 µM | C/C(=C\c1ccccc1)CN1CCC(Nc2nccn(-c3ccc(C#N)cc3)c2=O)CC1 [5-3]
37 | 0.0251 µM | 0.01 µM | 0.631 µM | CC(=O)c1ccc(-n2ccnc(NC3CCN(C/C(C)=C/c4ccccc4)CC3)c2=O)cc1 [5-7]
38 | 0.0794 µM | 0.0251 µM | 0.398 µM | C/C(=C\c1ccccc1)CN1CCC(Nc2nccn(Cc3ccccc3C)c2=O)CC1 [5-10]
39 | 0.1 µM | 0.0251 µM | 0.501 µM | C/C(=C\c1ccccc1)CN1CCC(Nc2nccn(Cc3cccc(F)c3)c2=O)CC1 [5-12]
40 | 0.0794 µM | 0.0251 µM | 0.398 µM | C/C(=C\c1ccccc1)CN1CCC(Nc2nccn(Cc3cccc(Br)c3)c2=O)CC1 [5-15]
41 | 0.501 µM | 0.1 µM | 5.01 µM | C/C(=C\c1ccccc1)CN1CCC(Nc2nccn(Cc3ccc(C#N)cc3)c2=O)CC1 [5-20]
42 | 0.158 µM | 0.0251 µM | 0.398 µM | C/C(=C\c1ccccc1)CN1CCC(Nc2nccn(Cc3ccccc3C(F)(F)F)c2=O)CC1 [5-21]
43 | 0.2 µM | 0.0794 µM | 0.794 µM | C/C(=C\c1ccccc1)CN1CCC(Nc2nccn(Cc3ccc(C(F)(F)F)cc3)c2=O)CC1 [5-23]
44 | 0.158 µM | 0.0631 µM | 0.501 µM | C/C(=C\c1ccccc1)CN1CCC(Nc2nccn(C/C=C/c3ccccc3)c2=O)CC1 [5-28]
45 | 0.1 µM | 0.02 µM | 0.2 µM | C/C(=C\c1ccccc1)CN1CCC(Nc2nccn(Cc3ccccc3-c3ccccc3)c2=O)CC1 [5-31]
46 | 0.316 µM | 0.126 µM | 0.316 µM | C/C(=C\c1ccccc1)CN1CCC(Nc2nccn(Cc3ccc(-c4ccccc4)cc3)c2=O)CC1 [5-32]
47 | 0.0794 µM | 0.1 µM | 1.26 µM | C/C(=C\c1ccccc1)CN1CCC(Nc2nccn(CC(=O)c3cccc(-c4ccccc4)c3)c2=O)CC1 [5-33]
48 | 0.126 µM | 0.02 µM | 1 µM | C/C(=C\c1ccccc1)CN1CCC(Nc2nccn(CC3CCCCO3)c2=O)CC1 (stereo not drawn) [6-1]
49 | 0.0501 µM | 0.00794 µM | 0.316 µM | C/C(=C\c1ccccc1)CN1CCC(Nc2nccn(-c3nccs3)c2=O)CC1 [6-5]
50 | 0.251 µM | 0.0398 µM | 2 µM | C/C(=C\c1ccccc1)CN1CCC(Nc2nccn(Cc3csc(C)n3)c2=O)CC1 [6-7]
